Read-outs that look alike come from different tables or passages of the source.

Data on 11 compounds can be found in publication PMC9025269, “Synthesis and Anti-Hepatitis B Activities of 3′-Fluoro-2′-Substituted Apionucleosides” (Molecules, 2022).

The test system of data set [1] is HBV. The conditions noted are these: racemic compounds; read-out: EC50 HBV in vitro; cited from earlier work.
In data set [2] the test system is HBV. Nature of the data set: HBV replication assay with HepG2.117 cells (qPCR of HBV DNA in supernatant). The data set is classed as cell-based, Hepatitis B virus. The conditions noted are these: for EC50: Hepatitis B virus, HepG2.117 cells, 96 h, mean ± SD (n); for anti-HBV activity: cell-based assay. For orientation: Real-time PCR tracks product formation cycle by cycle.

A short description of data set [3]: Cell cytotoxicity against HepG2 cells (CellTiter-Glo, 96 h). It counts as cell-based, human. The conditions noted are these: human. As to the method: (§1) In parallel, cell cytotoxicity (CC50) against HepG2 cells was measured using a luminescent cell viability assay to determine the number of viable cells in the culture based on quantitation of the adenosine triphosphate (ATP) present after a 4-day incubation period. On the first day, HepG2 cells were seeded at 15,000 cells per 100 µL per well with assay media containing DEME (Corning, cat#10-013-CV), 3% FBS (Coning, cat#35-011-CV), 1× penicillin/streptomycin and 1× Non-essential Amino Acid in Biocoat collagen-coated 96-well flat bottom plates. Cells were incubated in a 37 °C, 5% CO2 incubator for 4 h before compound dosing. The compound dilution and dosing procedure were identical to that for the determination of anti-HBV activity. After 96 h incubation, CellTiter-Glo® reagent (Promega, Madison, WI, USA) was added to each well and incubated for 10 min at RT. Luminescence was measured on a Victor X3 multi-label plate reader. Cell viability is normalized to the level observed in the absence of an inhibitor, which was defined as 100%.

For data set [4], the system named is VSV-G pseudotyped HIV NL4-3. Nature of the data set: microbe, parasite or virus in culture. The data set is classed as cell-based. The conditions noted are these: for EC50: Human immunodeficiency virus 1, NL43, CCRF-CEM, 72 h, read-out: HIV EC50.
The nature of data set [5]: in vitro. The conditions noted are these: human.
Data set [6] deals with T1, HBV polymerase (Hepatitis B virus genotype D subtype ayw, UniProt P03156).
T1 construct: Recombinant HBV polymerase (Hepatitis B virus genotype D subtype ayw, full length); made in house; host or cells: Sf9 insect cells (baculovirus)
Nature of the data set: HBV polymerase RdDp activity assay. It counts as biochemical. The conditions noted are these: read-out: HBV pol IC50. From the text:
(§2) HIV-1 reverse transcriptase (HIV-1 RT) was purchased from Abcam (cat#ab63979). Recombinant HBV polymerase (Hepatitis B virus genotype D subtype ayw, full length) was cloned using the baculovirus system, expressed in sf9 cells, and purified with similar strategy and methods described by Lanford et al.. A DNA primer (5′-[…]-3′) was synthesized by IDTDNA and a 358-nt RNA template was synthesized in-house using Megascript T7 transcription kit (ThermoFisher, cat#AM1334). dNTPs were purchased from Thermo Fisher and ^3H-dTTP from Perkin Elmer. Filter plates were purchased from Millipore (cat#MABN0V050) and microscint-20 was purchased from Perkin Elmer (cat#6013621).
The RdDp activity of HBV polymerase was measured similarly as described for the HIV-1 RT. To test compound inhibition effect, the reactions were performed at 30 °C for 120 min in a reaction mixture containing reaction buffer (50 mM Tris-Cl, pH 7.5, 100 mM KCl, 12.5 mM MgCl2, 4 mM DTT), 15 µg/mL polymerase, 0.5 µM DNA primer, 0.05 µM RNA template, 10% DMSO, 0.046 µM dATP, 0.057 µM dGTP, 0.017 µM dCTP, 0.32 µM ^3H-dTTP, and compounds at various concentrations.
All data were analyzed with GraphPad Prism. […]

Data set [7] concerns the target T2, HIV-1 reverse transcriptase (HIV-1 RT) (Human immunodeficiency virus type 1 group M subtype B, UniProt P03366).
T2 construct: HIV-1 reverse transcriptase (HIV-1 RT) was purchased from Abcam (cat#ab63979); purchased Abcam ab63979
Nature of the data set: HIV-1 reverse transcriptase RdDp activity assay. The data set is classed as biochemical.
Description: as §2
The RNA-dependent DNA polymerization (RdDp) activity of HIV-1 RT was measured by the incorporation of radioactively labeled nucleotides by HIV-1 RT into acid-insoluble DNA products from the DNA primer primed RNA template. To test compound inhibition, the reactions were performed at 30 °C for 40 min in a reaction mixture containing reaction buffer (50 mM Tris-Cl, pH 7.5, 100 mM KCl, 12.5 mM MgCl2, 4 mM DTT), 1 nM HIV-1 RT, 0.1 µM DNA primer, 0.02 µM RNA template, 10% DMSO, 0.1 µM dATP, 1 µM dGTP, 0.1 µM dCTP, 0.32 µM ^3H-dTTP, and compounds at various concentrations. The 50 µL reactions were performed in 96-well plates. The reactions were quenched with a 60 µL cold mixture of 20% (w/v) TCA and 0.5 mM ATP and incubated at 4 °C for 1 h. The reactions were loaded onto 96-well filter plates. The filters on plates were washed three times with 10% TCA and once with 70% ethanol on a Millipore plate wash station with vacuum applied. The filters on the plate were air-dried and 40 μL Microscint-20 was added to each well. The acid-precipitated tritiated DNA products retained on the filters were detected by a Trilux MicroBeta scintillation reader (Perkin Elmer).
All data were analyzed with GraphPad Prism. The compound concentration at which the enzyme-catalyzed rate was reduced by 50% (IC50) was calculated by fitting the data to the equation Y = % Min + (% Max − % Min) / (1 + 10^((logIC50-X)*h)), where Y corresponds to the percent inhibition to the enzyme activity, % Min is the residual inhibition activity without compound, % Max is the maximum inhibition of enzyme activity at saturating compound concentration, and X corresponds to the log of compound concentrations, and h is the hillslope.

The test system of data set [8] is HepG2 cells. Nature of the data set: Cell cytotoxicity against HepG2 cells (CellTiter-Glo, 96 h). The conditions noted are these: at highest tested concentrations; HepG2 and CEM cells (Table 1). It counts as cell-based, human. The protocol:
as §1
Background: ATP-based viability assays read luminescence as a measure of living cells.

Where [9] appears, read: HepG2 cells, 96 h, read-out: HBV CC50.

T1 sequence (P03156 whole entry): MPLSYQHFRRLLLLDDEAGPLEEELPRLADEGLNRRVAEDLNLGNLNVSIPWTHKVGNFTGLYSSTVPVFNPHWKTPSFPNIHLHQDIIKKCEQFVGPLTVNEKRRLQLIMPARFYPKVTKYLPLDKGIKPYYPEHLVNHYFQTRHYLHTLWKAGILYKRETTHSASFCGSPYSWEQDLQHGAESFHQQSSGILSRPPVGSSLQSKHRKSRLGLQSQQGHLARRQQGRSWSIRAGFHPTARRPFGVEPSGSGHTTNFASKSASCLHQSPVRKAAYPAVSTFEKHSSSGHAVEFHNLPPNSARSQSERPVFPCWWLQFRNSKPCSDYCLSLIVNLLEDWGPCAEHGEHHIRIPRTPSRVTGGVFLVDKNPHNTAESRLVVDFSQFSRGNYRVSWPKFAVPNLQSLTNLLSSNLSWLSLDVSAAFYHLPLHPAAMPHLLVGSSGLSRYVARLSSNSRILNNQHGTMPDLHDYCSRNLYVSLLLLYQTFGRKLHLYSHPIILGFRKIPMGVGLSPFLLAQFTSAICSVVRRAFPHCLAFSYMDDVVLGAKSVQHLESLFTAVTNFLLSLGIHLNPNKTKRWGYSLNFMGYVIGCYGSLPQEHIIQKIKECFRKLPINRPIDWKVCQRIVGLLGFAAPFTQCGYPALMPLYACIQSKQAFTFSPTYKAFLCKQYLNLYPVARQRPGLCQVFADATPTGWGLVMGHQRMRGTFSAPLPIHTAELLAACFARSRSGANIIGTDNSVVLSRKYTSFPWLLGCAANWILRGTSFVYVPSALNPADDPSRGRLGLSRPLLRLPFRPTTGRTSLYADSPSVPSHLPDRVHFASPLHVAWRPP

What is called EC50 is the concentration at which the effect is half-maximal. For `Nc1ccn([C@H]2C[C@@](F)(CO)CO2)c(=O)n1` (relative stereo) [Compound 2c], the EC50 in data set [1] is 11 nM.
Regarding `Nc1nc(=O)n([C@H]2C[C@@](F)(CO)CO2)cc1F` (relative stereo) [Compound 2d], the EC50 in data set [1] was 800 nM.
Regarding `O=c1[nH]c(=O)n([C@H]2C[C@](F)(CO)CO2)cc1I` (relative stereo) [Compound 3b], in data set [1], the EC50 was 800 nM.
For the compound `C=C1[C@H](CO)[C@@H](O)C[C@@H]1n1cnc2c(=O)[nH]c(N)nc21` [Compound 1, entecavir, reference compound], the EC50 in data set [2] came out at 3 ± 2.4 nM; in data set [4], 1240 nM. In addition, in data set [3], the CC50 at 96 h was greater than 100000 nM.
As for `C=C1[C@H](COP(=O)(N[C@@H](C)C(=O)OC(C)C)Oc2ccccc2)[C@@H](O)C[C@@H]1n1cnc2c(=O)[nH]c(N)nc21` (some centres unmarked) [Compound 1-PD, reference compound], the EC50 in data set [2] was 31 ± 20 nM; in data set [4], greater than 20000 nM. Further, the CC50 at 96 h in data set [3] (setting [9]) is greater than 10000 nM. In addition, in data set [5], the CC50 is greater than 20000 nM.
Broadly, the IC50 is the midpoint of a concentration-inhibition curve. Consider `C=C1[C@H](COP(=O)(O)OP(=O)(O)OP(=O)(O)O)[C@@H](O)C[C@@H]1n1cnc2c(=O)[nH]c(N)nc21` [Compound 1-TP, reference compound], for which the IC50 in data set [6] came out at 14 ± 3 nM; in data set [7] it was 320 nM.
`Nc1ncnc2c1ncn2[C@@H]1OC[C@](F)(CO)[C@H]1O` [Compound 4, (2R,3S,4R)-2-(6-Amino-9H-purin-9-yl)-4-fluoro-4-(hydroxymethyl)tetrahydrofuran-3-ol]: in data set [2], the EC50 was greater than 100000 nM and the “anti-HBV activity” value is reported as “Neither 4 nor its prodrug 24 showed any anti-HBV activity”. Moreover, the CC50 at 96 h in data set [3] was greater than 100000 nM. Also, in data set [8], the “cytotoxicity” value is “None of the tested apionucleosides 4 and 5 or apionucleoside prodrugs 24 and 39 showed any cytotoxicity”. Further, the EC50 in data set [4] was greater than 33000 nM. The compound further returned a CC50 in data set [5] greater than 33000 nM.
As to `Nc1ncnc2c1ncn2[C@@H]1OC[C@](F)(CO)[C@H]1CO` [Compound 5, ((2R,3S,4R)-2-(6-Amino-9H-purin-9-yl)-4-fluorotetrahydrofuran-3,4-diyl)dimethanol], in data set [2], the EC50 is greater than 10000 nM and the “anti-HBV activity” value is on record as “did not show any anti-HBV activity”. The same compound registered a CC50 at 96 h in data set [3] greater than 10000 nM. In addition, in data set [8], the “cytotoxicity” value is “None of the tested apionucleosides 4 and 5 or apionucleoside prodrugs 24 and 39 showed any cytotoxicity”. Further, the EC50 in data set [4] is greater than 33000 nM. Further, the CC50 in data set [5] was greater than 33000 nM.
As to `Nc1ncnc2c1ncn2[C@@H]1OC[C@](F)(COP(=O)(O)OP(=O)(O)OP(=O)(O)O)[C@H]1O` [Compound 23, ((3S,4S,5R)-5-(6-Amino-9H-purin-9-yl)-3-fluoro-4-hydroxytetrahydrofuran-3-yl)methyl triphosphate], half-maximal inhibition in data set [7] (IC50) was put at 4200 nM.
In the case of `CC(C)OC(=O)[C@H](C)NP(=O)(OC[C@@]1(F)CO[C@@H](n2cnc3c(N)ncnc32)[C@@H]1O)Oc1ccccc1` (stereo partly drawn) [Compound 24, Isopropyl ((((3S,4S,5R)-5-(6-amino-9H-purin-9-yl)-3-fluoro-4-hydroxytetrahydrofuran-3-yl)methoxy)(phenoxy)phosphoryl)-L-alaninate], in data set [2], the EC50 was greater than 10000 nM and the “anti-HBV activity” value is listed as “Neither 4 nor its prodrug 24 showed any anti-HBV activity”. The CC50 at 96 h in data set [3] (setting [9]) is greater than 10000 nM. Also, the “cytotoxicity” value in data set [8] is “None of the tested apionucleosides 4 and 5 or apionucleoside prodrugs 24 and 39 showed any cytotoxicity”. In addition, in data set [4], the EC50 is greater than 33000 nM. In addition, the CC50 in data set [5] is greater than 33000 nM.
Take `CC(C)OC(=O)[C@H](C)NP(=O)(OC[C@@]1(F)CO[C@@H](n2cnc3c(N)ncnc32)[C@@H]1CO)Oc1ccccc1` (stereo partly drawn) [Compound 39, Isopropyl ((((3S,4S,5R)-5-(6-amino-9H-purin-9-yl)-3-fluoro-4-(hydroxymethyl)tetrahydro-furan-3-yl)methoxy)(phenoxy)phosphoryl)-L-alaninate]: in data set [2], the midpoint of the response, the EC50, lay at 7.8 ± 3.5 nM and the “anti-HBV activity” value is on record as “strong inhibition of HBV”. In addition, the CC50 at 96 h in data set [3] (setting [9]) is greater than 10000 nM. Also, the “cytotoxicity” value in data set [8] is “None of the tested apionucleosides 4 and 5 or apionucleoside prodrugs 24 and 39 showed any cytotoxicity”. For the same compound, in data set [4], the “anti-HIV activity” value is given as “showed anti-HIV activity” and the EC50 came out at 300 nM. The compound also had a CC50 in data set [5] greater than 33000 nM.
